Series [1] addresses Transcriptional coactivator YAP1 (Homo sapiens) (UniProt P46937). The experiment in a line: Inhibition of YAP1 in human NCI-H1703 cells assessed as suppression of PD-L1 mRNA expression at 5 to 10 uM incubated for 72 hrs by RT-PCR method. The series is classed as cell-based.
Series [2] shares this target. Briefly: Inhibition of YAP1 in human NCI-H1703 cells assessed as suppression of fibronectin mRNA expression at 5 to 10 uM incubated for 72 hrs by RT-PCR method. The series is classed as cell-based.
For series [3] the target is unchanged. The experiment in a line: Inhibition of YAP1 in human NCI-H1650 cells assessed as suppression of Sox2 mRNA expression at 5 to 10 uM incubated for 72 hrs by RT-PCR method. The series is classed as cell-based.
Series [4] has the same target. Briefly: Inhibition of YAP1 in human NCI-H1650 cells assessed as suppression of HK2 mRNA expression at 5 to 10 uM incubated for 72 hrs by RT-PCR method. The series is classed as cell-based.
Series [5] shares this target. The experiment in a line: Inhibition of YAP1 in human NCI-H1703 cells assessed as suppression of HK2 mRNA expression at 5 to 10 uM incubated for 72 hrs by RT-PCR method. The series is classed as cell-based.
Series [6] relates to NCI-H1650. Briefly: Inhibition of adherence-independent cell growth in human NCI-H1650 cells at 5 uM incubated for 33 days. The series is classed as functional, cell-based.
In series [7] the target is Transcriptional coactivator YAP1 (Homo sapiens) (UniProt P46937). The experiment in a line: Inhibition of YAP1 in human NCI-H146 cells assessed as suppression of Sox2 mRNA expression at 5 to 10 uM incubated for 72 hrs by RT-PCR method. The series is classed as cell-based.
Transcriptional coactivator YAP1 (Homo sapiens), sequence (P46937 whole entry): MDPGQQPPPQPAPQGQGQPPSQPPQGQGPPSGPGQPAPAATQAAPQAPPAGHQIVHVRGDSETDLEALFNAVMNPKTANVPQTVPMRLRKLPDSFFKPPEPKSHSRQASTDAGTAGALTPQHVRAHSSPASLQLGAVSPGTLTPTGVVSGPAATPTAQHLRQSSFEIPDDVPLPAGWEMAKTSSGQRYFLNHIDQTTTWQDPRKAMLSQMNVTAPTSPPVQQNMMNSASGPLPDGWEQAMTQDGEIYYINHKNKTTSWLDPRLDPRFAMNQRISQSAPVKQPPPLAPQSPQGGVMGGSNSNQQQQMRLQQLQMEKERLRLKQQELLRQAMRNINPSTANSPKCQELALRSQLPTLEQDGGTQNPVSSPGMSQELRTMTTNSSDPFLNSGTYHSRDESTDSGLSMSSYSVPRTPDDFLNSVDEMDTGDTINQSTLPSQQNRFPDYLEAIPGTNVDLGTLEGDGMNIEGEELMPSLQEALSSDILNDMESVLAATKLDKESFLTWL
Series [8] has the same target. Briefly: Inhibition of YAP1 in human NCI-H1703 cells assessed as suppression of Sox2 mRNA expression at 5 to 10 uM incubated for 72 hrs by RT-PCR method. The series is classed as cell-based.
Series [9] deals with NCI-H1703. The experiment in a line: Effect on expression of Nanog mRNA expression in human NCI-H1703 cells at 5 to 10 uM incubated for 72 hrs by RT-PCR method. The series is classed as cell-based. Particulars: nci-h1703, 72 h.
Series [10] has as its system NCI-H1703. Briefly: Inhibition of adherence-independent cell growth in human NCI-H1703 cells at 5 uM incubated for 33 days. The series is classed as functional, cell-based.
The target of series [11] is Transcriptional coactivator YAP1 (Homo sapiens) (UniProt P46937). Briefly: Inhibition of YAP1 in human NCI-H146 cells assessed as suppression of PDK2 mRNA expression at 5 to 10 uM incubated for 72 hrs by RT-PCR method. The series is classed as cell-based.
The next series has as its system NCI-H1975. Briefly: Cytotoxicity in gefitinib and erlotinib resistant human NCI-H1975 cells assessed as reduction in cell viability at 1 to 10 uM incubated for 72 hrs by MTT assay. The series is classed as functional, cell-based.
The subject of series [12] is NCI-H146. Briefly: Inhibition of self-renewal capacity in methotrexate insensitive stem-like side-population cells of human NCI-H146 cells assessed as reduction in number of spheres at 2 uM incubated for 3 days after 7 days methotrexate exposure by sphere formation assay. The series is classed as functional.
The target of series [13] is Transcriptional coactivator YAP1 (Homo sapiens) (UniProt P46937). The experiment in a line: Inhibition of YAP1 in human NCI-H146 cells assessed as suppression of HK2 mRNA expression at 5 to 10 uM incubated for 72 hrs by RT-PCR method. The series is classed as cell-based.
Series [14] shares this target. The experiment in a line: Inhibition of YAP1 in human NCI-H1650 cells assessed as suppression of PDK2 mRNA expression at 5 to 10 uM incubated for 72 hrs by RT-PCR method. The series is classed as cell-based.
For series [15], the system named is NCI-H1650. Briefly: Inhibition of YAP1/TEAD2 interaction in human NCI-H1650 cells assessed as suppression of CTGF mRNA expression at 5 to 10 uM incubated for 72 hrs by RT-PCR method. The series is classed as cell-based.
Series [16] has as its system NCI-H1703. Briefly: Effect on expression of Oct4 mRNA expression in human NCI-H1703 cells at 5 to 10 uM incubated for 72 hrs by RT-PCR method. The conditions noted are these: nci-h1703, 72 h. The series is classed as cell-based.
In series [17] the target is Transcriptional coactivator YAP1 (Homo sapiens) (UniProt P46937). Briefly: Inhibition of YAP1 in human NCI-H1650 cells assessed as suppression of fibronectin mRNA expression at 5 to 10 uM incubated for 72 hrs by RT-PCR method. The series is classed as cell-based.
Series [18] shares this target. The experiment in a line: Inhibition of YAP1 in human NCI-H1703 cells assessed as suppression of PDK2 mRNA expression at 5 to 10 uM incubated for 72 hrs by RT-PCR method. The series is classed as cell-based.
The test system of series [19] is NCI-H1703. Briefly: Inhibition of adherence-independent cell growth in human NCI-H1703 cells at 10 uM incubated for 33 days. The series is classed as functional, cell-based.
Series [20] relates to NCI-H1650. Briefly: Effect on expression of Nanog mRNA expression in human NCI-H1650 cells at 5 to 10 uM incubated for 72 hrs by RT-PCR method. Particulars: nci-h1650, 72 h. The series is classed as cell-based.
Series [21] concerns the target Transcriptional coactivator YAP1 (Homo sapiens) (UniProt P46937). Briefly: Inhibition of YAP1 in human NCI-H1650 cells assessed as suppression of vimentin mRNA expression at 5 to 10 uM incubated for 72 hrs by RT-PCR method. The series is classed as cell-based.
Series [22] has as its system NCI-H146. Briefly: Effect on expression of Nanog mRNA expression in human NCI-H146 cells at 5 to 10 uM incubated for 72 hrs by RT-PCR method. The series is classed as cell-based. The conditions noted are these: nci-h146, 72 h.
Series [23] deals with Transcriptional coactivator YAP1 (Homo sapiens) (UniProt P46937). Briefly: Inhibition of YAP1 in human NCI-H1703 cells assessed as suppression of vimentin mRNA expression at 5 to 10 uM incubated for 72 hrs by RT-PCR method. The series is classed as cell-based.
Series [24] has as its system NCI-H1650. The experiment in a line: Effect on expression of Oct4 mRNA expression in human NCI-H1650 cells at 5 to 10 uM incubated for 72 hrs by RT-PCR method. The series is classed as cell-based. Particulars: nci-h1650, 72 h.
Series [25] has as its target Transcriptional coactivator YAP1 (Homo sapiens) (UniProt P46937). The experiment in a line: Inhibition of YAP1 in human NCI-H1650 cells assessed as suppression of PD-L1 mRNA expression at 5 to 10 uM incubated for 72 hrs by RT-PCR method. The series is classed as cell-based.
For series [26], the system named is NCI-H1703. The experiment in a line: Inhibition of YAP1/TEAD2 interaction in human NCI-H1703 cells assessed as suppression of CTGF mRNA expression at 5 to 10 uM incubated for 72 hrs by RT-PCR method. The series is classed as cell-based.
Series [27] deals with NCI-H1650. Briefly: Inhibition of adherence-independent cell growth in human NCI-H1650 cells at 10 uM incubated for 33 days. The series is classed as functional, cell-based.
In series [28] the test system is NCI-H146. Briefly: Effect on expression of Oct4 mRNA expression in human NCI-H146 cells at 5 to 10 uM incubated for 72 hrs by RT-PCR method. The conditions noted are these: nci-h146, 72 h. The series is classed as cell-based.
Another series relates to NCI-H2170. The experiment in a line: Cytotoxicity in human NCI-H2170 cells assessed as reduction in cell viability at 5 to 50 uM incubated for 96 hrs by MTT assay. The series is classed as functional, cell-based.
The next series concerns NCI-H2286. The experiment in a line: Cytotoxicity in human NCI-H2286 cells assessed as reduction in cell viability at 5 to 50 uM incubated for 96 hrs by MTT assay. The series is classed as functional, cell-based.
For series [29], the system named is NCI-H1650. Briefly: Cytotoxicity in human NCI-H1650 cells assessed as reduction in cell viability at 1 to 20 uM incubated for 72 hrs by MTT assay. The series is classed as functional, cell-based.
Series [30] has as its system NCI-H1650. Briefly: Inhibition of self-renewal capacity in stem-like side-population cells of human NCI-H1650 cells assessed as reduction in number of spheres at 5 to 50 uM incubated for 10 days by sphere formation assay. The series is classed as functional, cell-based.
Another series relates to A549. The experiment in a line: Cytotoxicity in human A549 cells assessed as reduction in cell viability at 1 to 20 uM incubated for 72 hrs by MTT assay. The series is classed as functional, cell-based.
Series [31] addresses Transcriptional coactivator YAP1 (Homo sapiens) (UniProt P46937). The experiment in a line: Inhibition of YAP1 in human A549 cells assessed as reduction in Sox2 protein expression at 10 uM incubated for 72 hrs by Western blot analysis. The series is classed as cell-based.
For series [32] the target is unchanged. The experiment in a line: Inhibition of YAP1 in human A549 cells assessed as reduction in PDK2 protein expression at 10 uM incubated for 72 hrs by Western blot analysis. The series is classed as cell-based.
For series [33] the target is unchanged. Briefly: Inhibition of YAP1 in human NCI-H1650 cells assessed as reduction in c-Myc protein expression at 10 uM incubated for 72 hrs by Western blot analysis. The series is classed as cell-based.
For series [34] the target is unchanged. The experiment in a line: Inhibition of YAP1 in human NCI-H1650 cells assessed as reduction in Sox2 protein expression at 10 uM incubated for 72 hrs by Western blot analysis. The series is classed as cell-based.
Series [35] shares this target. The experiment in a line: Inhibition of YAP1 in human A549 cells assessed as reduction in c-Myc protein expression at 10 uM incubated for 72 hrs by Western blot analysis. The series is classed as cell-based.
For series [36] the target is unchanged. Briefly: Inhibition of YAP1 in human NCI-H1650 cells assessed as reduction in PDK2 protein expression at 10 uM incubated for 72 hrs by Western blot analysis. The series is classed as cell-based.

Activity calls are given as the source filed them. The rule behind the calls is not given here.

Take `O=[N+]([O-])c1nc[nH]c1/C=C/c1cccc(F)c1`: the inhibition entry (in [1]; in series [2]; in series [3]; in [4]; in series [5]; in the series on NCI-H1650 [6]) was “Active” in each case. Further, the inhibition entry (in series [7]; in series [8]; with NCI-H1703 [10]; in series [11]; in the series with NCI-H146 [12]; in series [13]) was “Active” each time. The inhibition result (in series [14]; in [17]; in series [18]; in the series on NCI-H1703 [19]; in series [21]; in [23]) was “Active” each time. Also, the inhibition result (in [25]; with NCI-H1650 [27]) was “Active” throughout. Further, the Activity entry in the series with NCI-H1703 [9], in the series on NCI-H1703 [16], in the series on NCI-H1650 [20], in the series on NCI-H146 [22], with NCI-H1650 [24] and with NCI-H146 [28] was “Non-Toxic” throughout. Moreover, in the series on NCI-H1975, the outcome was Active. For the same compound, the inhibition entry with NCI-H1650 [15] and in the series with NCI-H1703 [26] was “inactive” in each case.
For the compound `COC(=O)[C@H](Cc1ccc(OCc2ccccc2)cc1)NC(=O)CC1CCN(C(=O)CCc2cc(OC)c(OC)c(OC)c2)CC1`, the result in the series on NCI-H2170, with NCI-H2286, with NCI-H1650 [29] and in the series on A549 was Active. Besides, in the series on NCI-H1650 [30], the inhibition entry is “Active”.
For `COC(=O)[C@H](Cc1ccc(OCc2ccccc2)cc1)NC(=O)CC1CCN(C(=O)c2ccc(NC(=O)OC(C)(C)C)cc2)CC1`, the inhibition result (with NCI-H1650 [6]; in series [31]; in series [32]; in the series with NCI-H1703 [10]; in series [33]; in series [34]) was “Active” throughout. Also, the inhibition entry (in [35]; with NCI-H1703 [19]; in [36]; with NCI-H1650 [27]) was “Active” in each case.

(Values after ChEMBL document CHEMBL4419178, “Yap1 inhibitors that target the interaction of yap1 with oct4” (2018).)
